Measured values from article PMC5011342, “A high throughput drug screening assay to identify compounds that promote oligodendrocyte differentiation using acutely dissociated and purified oligodendrocyte precursor cells” (BMC Research Notes, 2016).
Like-named read-outs stand apart in the source and are kept apart here.

What was measured:
[1] = tested on: acutely dissociated and purified rat OPCs; test: Acute OL differentiation assay (MBP expression/cell, immunofluorescent image quantification); type: cell-based; conditions: sheet "All OLga data"; for activation at 0.08 µM / activation at 0.4 µM / activation at 2 µM / activation at 10 µM: Rattus norvegicus
How it was run: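 Oligodendrocyte precursor cells were enriched from P6-P7 Sprague–Dawley rat brains by immunopanning (RAN-2 and GalC depletion, O4 selection), plated at 5000 cells/well in serum-free, mitogen-free differentiation media on PDL/laminin 96-well view plates, centrifuged at 200×g, and pre-incubated 1–2 h before test compounds were added in quadruplicate. On DIV4, cells were fixed, stained for MBP and DAPI, imaged automatically, and MBP expression per cell was quantified.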

[2] = tested on: expanded OPCs; test: cells; conditions: for viability at 0.1 µM / viability at 1 µM / viability at 10 µM: Rattus norvegicus, 72 h; for 0.1 µM (% DMSO) / 1 µM (% DMSO) / 10 µM (% DMSO): alamarBlue viability of expanded OPCs; for 0.1 µM (% DMSO): compound at 0.1 µM; for 1 µM (% DMSO): compound at 1 µM; for 10 µM (% DMSO): compound at 10 µM
How it was run: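 Expanded OPCs seeded at 10,000 cells/well in differentiation media, then exposed to NCC library compounds at 10, 1 and 0.1 µM (quadruplicate, 0.1% DMSO) for three days. Viability read as alamarBlue fluorescence (560/590 nm) after 4 h at 37 °C; tunicamycin 5 ng/ml served as toxicity control.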

[3] = 0.4 uM test compound, relative to quetiapine, read-out: OL differentiation, 0.4 uM (% Quet)
[4] = read-out: 0.1 µM (% DMSO), alamarBlue viability of expanded OPCs, compound at 0.1 µM, sheet All Tox data
[5] = read-out: 1 µM (% DMSO), alamarBlue viability of expanded OPCs, compound at 1 µM, sheet All Tox data
[6] = read-out: 10 µM (% DMSO), alamarBlue viability of expanded OPCs, compound at 10 µM, sheet All Tox data
[7] = 2 uM test compound, relative to quetiapine
[8] = 10 uM test compound, relative to quetiapine
[9] = 2 uM test compound, relative to quetiapine, read-out: OL differentiation, 2 uM (% Quet)
[10] = 10 uM test compound, relative to quetiapine, read-out: OL differentiation, 10 uM (% Quet)
[11] = test compound at 2 uM, NCC library screen, relative to quetiapine, read-out: 2 uM (% Quet)
[12] = test compound at 10 uM, NCC library screen, relative to quetiapine, read-out: 10 uM (% Quet)
[13] = read-out: 0.1 µM (% DMSO), alamarBlue viability, NCC library compound at 0.1 µM, sheet "All Tox data"
[14] = read-out: 1 µM (% DMSO), alamarBlue viability, NCC library compound at 1 µM, sheet "All Tox data"
[15] = read-out: 10 µM (% DMSO), alamarBlue viability, NCC library compound at 10 µM, sheet "All Tox data"

## COC(=O)C1=C(C)NC(C)=C(C(=O)OCC(C)C)C1c1ccccc1[N+](=O)[O-] (stereo not shown) [Nisoldipine]
[1]; 0.08 uM test compound, relative to quetiapine, read-out: OL differentiation, 0.08 uM (% Quet)
  activation at 0.08 µM: -23.7%
[1]; [3]
  activation at 0.4 µM: -133%
[2]; [4]
  viability at 0.1 µM: 94.2%
[2]; [5]
  viability at 1 µM: 11.9%
[2]; [6]
  viability at 10 µM: 11.4%

## Cl.NC1CCN(c2cccc(Cl)n2)CC1 [SR57227A]
[1]; [7]
  OL differentiation, 2 uM (% Quet): 13.8 % Quet
[1]; [8]
  OL differentiation, 10 uM (% Quet): 30.8 % Quet
[2]; sheet All Tox data
  0.1 µM (% DMSO): 85.7 % DMSO
  1 µM (% DMSO): 88.3 % DMSO
  10 µM (% DMSO): 77.5 % DMSO

## C[C@]12CCC(=O)C[C@@H]1CC[C@@H]1[C@@H]2CC[C@@]2(C)[C@H]1CC[C@]2(C)O [Mestanolone]
[1]; [9]
  activation at 2 µM: 0.8%
[1]; [10]
  activation at 10 µM: -18%
[2]; [4]
  viability at 0.1 µM: 102%
[2]; [5]
  viability at 1 µM: 94.1%
[2]; [6]
  viability at 10 µM: 120%

## COc1ccc2[nH]cc(CCN)c2c1 [5-Methoxytryptamine]
[1]; [11]
  activation at 2 µM: 2.6%
[1]; [12]
  activation at 10 µM: 4.2%
[2]; [13]
  viability at 0.1 µM: 82.9%
[2]; [14]
  viability at 1 µM: 83.6%
[2]; [15]
  viability at 10 µM: 78.8%

## Cc1occc(=O)c1O [Maltol]
[1]; [11]
  activation at 2 µM: -7%
[1]; [12]
  activation at 10 µM: 8.2%
[2]; [13]
  viability at 0.1 µM: 83.5%
[2]; [14]
  viability at 1 µM: 91.1%
[2]; [15]
  viability at 10 µM: 84.9%

## Oc1ccc2c3c1O[C@H]1c4[nH]c5ccccc5c4C[C@@]4(O)[C@@H](C2)N(CC2CC2)CC[C@]314 [Naltrindole]
[1]; [3]
  activation at 0.4 µM: -9.9%
[1]; [9]
  activation at 2 µM: -35.8%
[2]; [4]
  viability at 0.1 µM: 80.6%
[2]; [5]
  viability at 1 µM: 66.7%
[2]; [6]
  viability at 10 µM: 17.9%

## CC1CNc2c(cccc2S(=O)(=O)N[C@@H](CCCNC(=N)N)C(=O)N2CC[C@@H](C)C[C@@H]2C(=O)O)C1 (stereo partly shown) [Argatroban]
[1]; [9]
  activation at 2 µM: 0.26%
[1]; [10]
  activation at 10 µM: 2.3%
[2]; [4]
  viability at 0.1 µM: 103%
[2]; [5]
  viability at 1 µM: 101%
[2]; [6]
  viability at 10 µM: 93%

## CC(CCc1ccccc1)NCC(O)c1ccc(O)c(C(N)=O)c1 (stereo not shown) [Labetalol]
[1]; test compound at 0.4 uM, NCC library screen, relative to quetiapine, read-out: 0.4 uM (% Quet)
  activation at 0.4 µM: -5.2%
[1]; [11]
  activation at 2 µM: -15.3%
[2]; [13]
  viability at 0.1 µM: 92.7%
[2]; [14]
  viability at 1 µM: 79.2%
[2]; [15]
  viability at 10 µM: 47.3%

## COC(=O)Nc1nc2ccc(C(=O)c3ccccc3)cc2[nH]1 [Mebendazole]
[1]; test compound at 0.08 uM, MBP expression relative to quetiapine, NCC library screen, read-out: 0.08 uM (% Quet)
  activation at 0.08 µM: -29.9%
[1]; test compound at 0.4 uM, MBP expression relative to quetiapine, NCC library screen, read-out: 0.4 uM (% Quet)
  activation at 0.4 µM: -139%
[2]; relative to DMSO control
  0.1 µM (% DMSO): 47.2 % DMSO
  1 µM (% DMSO): 53.6 % DMSO
  10 µM (% DMSO): 45.7 % DMSO

## C[C@]12C=CC(=O)C=C1CC[C@@H]1[C@@H]2C(=O)C[C@@]2(C)[C@H]1CC[C@]2(O)C(=O)CO [Prednisone]
[1]; [11]
  activation at 2 µM: -4.5%
[1]; [12]
  activation at 10 µM: -47.4%
[2]; relative to DMSO control
  0.1 µM (% DMSO): 88.8 % DMSO
  1 µM (% DMSO): 89.0 % DMSO
  10 µM (% DMSO): 86.2 % DMSO

## Nc1c2c(nc3c1CCC3)CCCC2 [Amiridine]
[1]; [7]
  OL differentiation, 2 uM (% Quet): 7.6 % Quet
[1]; [8]
  OL differentiation, 10 uM (% Quet): 34.5 % Quet
[2]; sheet All Tox data
  0.1 µM (% DMSO): 87.3 % DMSO
  1 µM (% DMSO): 86.4 % DMSO
  10 µM (% DMSO): 89.5 % DMSO

## N=C(N)NC(=O)c1nc(Cl)c(N)nc1N [Amiloride]
[1]; [9]
  activation at 2 µM: -5.9%
[1]; [10]
  activation at 10 µM: -0.4%
[2]; [4]
  viability at 0.1 µM: 82.2%
[2]; [5]
  viability at 1 µM: 83.7%
[2]; [6]
  viability at 10 µM: 90.8%

## CC(=O)OCC(=O)[C@@]12OC(C)(C)O[C@@H]1C[C@H]1[C@@H]3C[C@H](F)C4=CC(=O)C=C[C@]4(C)[C@@]3(F)[C@@H](O)C[C@@]12C [Fluocinonide]
[1]; test compound at 2 uM, MBP expression relative to quetiapine, NCC library screen, read-out: 2 uM (% Quet)
  activation at 2 µM: 12.4%
[1]; test compound at 10 uM, MBP expression relative to quetiapine, NCC library screen, read-out: 10 uM (% Quet)
  activation at 10 µM: -24.4%
[2]; relative to DMSO control
  0.1 µM (% DMSO): 108.3 % DMSO
  1 µM (% DMSO): 102.9 % DMSO
  10 µM (% DMSO): 80.4 % DMSO

## Cc1ccc(O)c([C@H](CCN(C(C)C)C(C)C)c2ccccc2)c1 [Tolterodine]
[1]; [3]
  activation at 0.4 µM: -6.8%
[1]; [9]
  activation at 2 µM: -0.9%
[2]; [4]
  viability at 0.1 µM: 88.4%
[2]; [5]
  viability at 1 µM: 87.8%
[2]; [6]
  viability at 10 µM: 46.5%
